Assay results: publication PMC6707142, “Orthogonal monoterpenoid biosynthesis in yeast constructed on an isomeric substrate” (Nature Communications, 2019)

Columns and labels:
SeCamS = test system: T1, SeCamS; test: GC-MS of hexane-extracted monoterpene products; type: biochemical, Solanum elaeagnifolium; conditions: 20 mM MOPS pH 7.0, 20 mM MgCl2, 0.02 mM MnCl2, 30 °C, 1 h; read-out: KM^app
T1 construct: 6xHis-tagged, E. coli BL21(DE3), Ni-NTA purified
From the text: GC-MS of hexane-extracted monoterpene products on SeCamS

PtPinS = biological target: T2, PtPinS (Pinus taeda, UniProt Q84KL3); test: GC-MS product analysis in vitro; type: biochemical; conditions: 20 mM MOPS pH 7.0, 20 mM MgCl2, 0.02 mM MnCl2, 30 °C, 1 h
T2 construct: gene PT30; lacking the transit peptide, 6xHis-tagged, E. coli BL21(DE3), Ni-NTA purified
T2 sequence (Q84KL3 49-628): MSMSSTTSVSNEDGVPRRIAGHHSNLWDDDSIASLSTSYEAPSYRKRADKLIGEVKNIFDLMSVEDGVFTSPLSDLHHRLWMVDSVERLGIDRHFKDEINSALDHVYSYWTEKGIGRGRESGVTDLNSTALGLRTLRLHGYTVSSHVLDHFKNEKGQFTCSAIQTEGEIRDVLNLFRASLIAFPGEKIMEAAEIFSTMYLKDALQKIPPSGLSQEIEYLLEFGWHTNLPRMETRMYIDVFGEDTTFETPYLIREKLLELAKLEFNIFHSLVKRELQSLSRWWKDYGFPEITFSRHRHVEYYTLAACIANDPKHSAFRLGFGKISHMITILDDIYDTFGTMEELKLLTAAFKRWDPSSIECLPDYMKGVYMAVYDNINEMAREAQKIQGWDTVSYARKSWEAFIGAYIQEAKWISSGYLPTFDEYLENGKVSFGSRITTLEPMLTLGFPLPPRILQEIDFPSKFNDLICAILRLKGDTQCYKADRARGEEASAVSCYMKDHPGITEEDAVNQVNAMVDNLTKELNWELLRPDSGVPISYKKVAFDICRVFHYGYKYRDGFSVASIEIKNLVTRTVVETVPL

SpSabS = biological target: T3, SpSabS (Salvia pomifera, UniProt A6XH06); test: GC-MS product analysis in vitro; type: biochemical; conditions: 20 mM MOPS pH 7.0, 20 mM MgCl2, 0.02 mM MnCl2, 30 °C, 1 h
T3 construct: gene SabS1; 6xHis-tagged, E. coli BL21(DE3), Ni-NTA purified
T3 sequence (A6XH06 29-581): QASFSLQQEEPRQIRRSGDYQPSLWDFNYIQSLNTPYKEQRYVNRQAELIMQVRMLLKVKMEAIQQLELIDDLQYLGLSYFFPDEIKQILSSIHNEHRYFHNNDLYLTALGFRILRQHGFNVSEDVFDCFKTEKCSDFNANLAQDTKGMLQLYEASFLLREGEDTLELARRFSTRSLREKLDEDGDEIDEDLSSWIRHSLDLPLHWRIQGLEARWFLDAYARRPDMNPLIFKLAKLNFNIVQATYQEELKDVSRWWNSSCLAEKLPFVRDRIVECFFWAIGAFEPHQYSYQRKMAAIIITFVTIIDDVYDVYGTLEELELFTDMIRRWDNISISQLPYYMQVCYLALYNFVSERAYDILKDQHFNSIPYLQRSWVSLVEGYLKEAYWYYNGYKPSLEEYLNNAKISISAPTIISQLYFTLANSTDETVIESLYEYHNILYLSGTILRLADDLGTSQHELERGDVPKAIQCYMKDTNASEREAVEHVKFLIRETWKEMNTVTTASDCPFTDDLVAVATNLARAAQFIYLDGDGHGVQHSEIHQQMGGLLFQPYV

Km (SeCamS)	SMILES	GC-MS product analysis in vitro (PtPinS)	GC-MS product analysis in vitro (SpSabS)
18.6 ± 2.77 µM	CC(C)=CCC/C(C)=C/COP(=O)(O)OP(=O)(O)O [GPP]	–	–
107 ± 12.5 µM	CC(C)=CCC/C(C)=C\COP(=O)(O)OP(=O)(O)O [NPP]	able to utilize NPP in in vitro assays with bacterially expressed enzymes	able to utilize NPP in in vitro assays with bacterially expressed enzymes
